Test results: patent publication US20260130885A1, “ANTIMICROBIAL COMPOSITIONS, PHARMACEUTICAL COMPOSITIONS AND USE THEREOF” (priority 2022, published 2026)
Like-named read-outs stand apart in the source and are kept apart here.

Tested on: MRSA USA300
Assay: Antibacterial activity assay (MIC by broth microdilution, MBC by subculture)
Format: cell-based, Staphylococcus aureus
Settings: for synergy of the fatty acid with SC5005 (in words): summary of Tables 1 and 2; for bactericidal combination effect of the fatty acid with SC5005 (in words): MBC, Table 2; for effect of the fatty acid on the MIC of SC5005 (in words): summary of Table 1
Method: The antimicrobial activity was based on MIC and MBC; MIC is the minimum inhibitory concentration and MBC is the minimum bactericidal concentration. The MIC of individual test agents against MRSA USA300 strains was determined using the broth microdilution method according to CLSI guidelines. Briefly, overnight bacterial cultures in LB medium were diluted 1:50 in fresh LB medium and incubated at 37° C. until reaching an OD600 of 0.5 to 0.6. Bacterial suspensions were diluted to a final concentration of 5×10^5 cfu/mL in fresh CAMHB and then exposed to each test agent at increasing doses in triplicate in 96-well plates for 24 hours at 37° C. The MIC of each agent was defined as the lowest concentration without visible bacterial growth. […] The lowest broth dilution that had no viable bacteria was considered the MBC.
Then, the combination effect was measured by calculating their corresponding fractional inhibitory concentration index (FICI) with the equation ΣFIC (FICi)=FICA+FICB=(CombA/MICA)+(CombB/MICB), where MICA and MICB are the MICs of drugs A and B alone, respectively, and CombA and CombB are the concentrations of drugs A and B in combination, respectively. […] was defined as an FICI≤0.5, no interaction was defined as an FICI>0.5-4.0, and antagonism was defined as an FICI>4.

[1] = Staphylococcus aureus, amide compound alone, read-out: MBC
[2] = Staphylococcus aureus, amide compound alone, read-out: MIC
[3] = Staphylococcus aureus, fatty acid alone, read-out: MBC fatty acid
[4] = Staphylococcus aureus, fatty acid alone, read-out: MIC fatty acid

SMILES	MIC (+8 mg/L DHA)	MIC [2]	MBC [1]	MBC (+8 mg/L DHA)	further results
O=C(Nc1ccc2c(c1)OCO2)Nc1ccc(Cl)c(C(F)(F)F)c1 [1-159, reference compound]	0.125 µg/mL	32 µg/mL	64 µg/mL	–	–
O=C(Nc1ccc(Cl)c(C(F)(F)F)c1)Nc1cccc(OF)c1OF [1-164, reference compound]	0.03125 µg/mL	0.25 µg/mL	4 µg/mL	–	–
O=C(Nc1ccc(Oc2ccccc2)cc1)Nc1ccc(Cl)c(C(F)(F)F)c1 [3-006, reference compound]	0.0078 µg/mL	0.125 µg/mL	1 µg/mL	–	–
CC/C=C\C/C=C\C/C=C\C/C=C\C/C=C\CCCC(=O)O [Eicosapentaenoic acid, eicosapentaenoic acid]	–	–	–	–	MBC [3]: 1020 µg/mL; MIC [4]: 64 µg/mL
O=C(Nc1ccc([N+](=O)[O-])c(C(F)(F)F)c1)C(CCCl)C(=O)Nc1ccc([N+](=O)[O-])c(C(F)(F)F)c1 [SC5034]	1 µg/mL	16 µg/mL	32 µg/mL	1 µg/mL	–
O=C(Nc1cc(Cl)cc(Cl)c1)C(CCCl)C(=O)Nc1ccc([N+](=O)[O-])c(C(F)(F)F)c1 (centres unmarked) [SC5041]	0.0625 µg/mL	0.5 µg/mL	2 µg/mL	0.0625 µg/mL	–
CCCCC/C=C\C/C=C\C/C=C\C/C=C\CCCC(=O)O [arachidonic acid]	–	–	–	–	MBC [3]: 1020 µg/mL; MIC [4]: 128 µg/mL
CCCCCCCC/C=C/CCCCCCCC(=O)O [elaidic acid]	–	–	–	–	MBC [3]: > 1020 µg/mL; MIC [4]: > 1020 µg/mL; synergy of the fatty acid with SC5005 (in words): did not exhibit synergy with SC5005
CCCCCCCC/C=C\CCCCCCCCCCCC(=O)O [erucic acid]	–	–	–	–	bactericidal combination effect of the fatty acid with SC5005 (in words): exhibited a synergistic bactericidal effect with SC5005; MBC [3]: 1020 µg/mL; MIC [4]: 128 µg/mL; effect of the fatty acid on the MIC of SC5005 (in words): had no effect on the MIC of SC5005
CCCCCCCC/C=C\CCCCCCCCCC(=O)O [gondoic acid]	–	–	–	–	bactericidal combination effect of the fatty acid with SC5005 (in words): exhibited a synergistic bactericidal effect with SC5005; MBC [3]: > 1020 µg/mL; MIC [4]: 512 µg/mL; effect of the fatty acid on the MIC of SC5005 (in words): had no effect on the MIC of SC5005
CCCCC/C=C\C/C=C\CCCCCCCC(=O)O [linoleic acid]	–	–	–	–	MBC [3]: > 1020 µg/mL; MIC [4]: 1020 µg/mL
CCCCCCCCCCCCCC(=O)O [myristic acid]	–	–	–	–	MBC [3]: > 1020 µg/mL; MIC [4]: 512 µg/mL; synergy of the fatty acid with SC5005 (in words): neither of nervonic acid (C24:1n9c) and myristic acid (C14:1n5c), which have 24 and 14 carbon atoms respectively, showed any synergistic activity with SC5005
CCCCCCCC/C=C\CCCCCCCCCCCCCC(=O)O [nervonic acid]	–	–	–	–	MBC [3]: > 1020 µg/mL; MIC [4]: 128 µg/mL; synergy of the fatty acid with SC5005 (in words): neither of nervonic acid (C24:1n9c) and myristic acid (C14:1n5c), which have 24 and 14 carbon atoms respectively, showed any synergistic activity with SC5005
CCCCCCCC/C=C\CCCCCCCC(=O)O [oleic acid]	–	–	–	–	MBC [3]: > 1020 µg/mL; MIC [4]: 512 µg/mL
CCCCCC/C=C\CCCCCCCC(=O)O [palmitoleic acid]	–	–	–	–	MBC [3]: 512 µg/mL; MIC [4]: 64 µg/mL; synergy of the fatty acid with SC5005 (in words): exhibited synergy
CCCCCCCCCCCCCCCCCC(=O)O [stearic acid]	–	–	–	–	MBC [3]: > 1020 µg/mL; MIC [4]: 512 µg/mL; synergy of the fatty acid with SC5005 (in words): failed to exhibit synergy

Now from value to compound, other results behind:

MIC (+8 mg/L DHA)	MIC [2]	SMILES	MBC [1]	MBC (+8 mg/L DHA)	further results
>64 µg/mL	> 64 µg/mL	FC(F)(F)c1cc(Nc2cncc(Nc3ccc(Cl)c(C(F)(F)F)c3)n2)ccc1Cl [SC5010]	> 64 µg/mL	>64 µg/mL	–
>64 µg/mL	> 64 µg/mL	C#Cc1cccc(Nc2cncc(Nc3cccc(C#C)c3)n2)c1 [SC5015]	> 64 µg/mL	>64 µg/mL	–
0.125 µg/mL	> 64 µg/mL	O=C(Nc1ccc(Cl)c(C(F)(F)F)c1)C1(C(=O)Nc2ccc(Cl)c(C(F)(F)F)c2)CC1 [SC5020]	> 64 µg/mL	0.125 µg/mL	–
64 µg/mL	> 64 µg/mL	C#Cc1cccc(NC(=O)C2(C(=O)Nc3cccc(C#C)c3)CC2)c1 [SC5021]	> 64 µg/mL	64 µg/mL	–
>64 µg/mL	> 64 µg/mL	O=C(Nc1ccccc1)C(CCCl)C(=O)Nc1ccccc1 [SC5022]	> 64 µg/mL	>64 µg/mL	–
16 µg/mL	> 64 µg/mL	O=C(Nc1cccc(C(F)(F)F)c1)C(CCCl)C(=O)Nc1cccc(C(F)(F)F)c1 [SC5023]	> 64 µg/mL	16 µg/mL	–
8 µg/mL	> 64 µg/mL	O=C(Nc1ccc(OC(F)(F)F)cc1)C(CCCl)C(=O)Nc1ccc(OC(F)(F)F)cc1 [SC5024]	> 64 µg/mL	8 µg/mL	–
2 µg/mL	16 µg/mL	O=C(Nc1cc(Cl)cc(Cl)c1)C(CCCl)C(=O)Nc1cc(Cl)cc(Cl)c1 [SC5025]	32 µg/mL	2 µg/mL	–
>64 µg/mL	> 64 µg/mL	C#Cc1cccc(NC(=O)C(CCCl)C(=O)Nc2cccc(C#C)c2)c1 [SC5026]	> 64 µg/mL	>64 µg/mL	–
64 µg/mL	> 64 µg/mL	O=C(Nc1cccc(Cl)c1)C(CCCl)C(=O)Nc1cccc(Cl)c1 [SC5027]	> 64 µg/mL	>64 µg/mL	–
1 µg/mL	16 µg/mL	O=C(Nc1cc(Cl)cc(Cl)c1)C(CCCl)C(=O)Nc1ccc(Cl)c(C(F)(F)F)c1 (centres unmarked) [SC5035]	32 µg/mL	2 µg/mL	–
0.0039 µg/mL	1 µg/mL	C=CCC(C(=O)Nc1ccc(Cl)c(C(F)(F)F)c1)C(=O)Nc1ccc(Cl)c(C(F)(F)F)c1 [SC5037]	2 µg/mL	0.0078 µg/mL	–
>64 µg/mL	> 64 µg/mL	C#Cc1cccc(NC(=O)C(CC=C)C(=O)Nc2cccc(C#C)c2)c1 [SC5038]	> 64 µg/mL	>64 µg/mL	–
0.0039 µg/mL	1 µg/mL	C=CCC(C(=O)Nc1cc(Cl)cc(Cl)c1)C(=O)Nc1cc(Cl)cc(Cl)c1 [SC5040]	2 µg/mL	0.125 µg/mL	–
0.0156 µg/mL	2 µg/mL	O=C(Nc1cc(Cl)cc(Cl)c1)C(Cc1ccccc1)C(=O)Nc1cc(Cl)cc(Cl)c1 [SC5043]	4 µg/mL	0.0156 µg/mL	–
0.000975 µg/mL	0.5 µg/mL	O=C(Nc1cc(C(F)(F)F)cc(C(F)(F)F)c1)C(Cc1ccccc1)C(=O)Nc1cc(C(F)(F)F)cc(C(F)(F)F)c1 [SC5044]	2 µg/mL	0.0078 µg/mL	–
>64 µg/mL	> 64 µg/mL	O=C(NC1CCCCC1)C(CCCl)C(=O)NC1CCCCC1 [SC5048]	> 64 µg/mL	>64 µg/mL	–
8 µg/mL	> 64 µg/mL	CCCNC(=O)C(CCCl)C(=O)Nc1ccc(Cl)c(C(F)(F)F)c1 (centres unmarked) [SC5049]	> 64 µg/mL	8 µg/mL	–
8 µg/mL	> 64 µg/mL	C=CCNC(=O)C(CCCl)C(=O)Nc1ccc(Cl)c(C(F)(F)F)c1 (centres unmarked) [SC5050]	> 64 µg/mL	16 µg/mL	–
1 µg/mL	> 64 µg/mL	C=CCNC(=O)C(CCCl)C(=O)NCC=C [SC5052]	> 64 µg/mL	2 µg/mL	–
1 µg/mL	> 64 µg/mL	O=C(Nc1ccc(Cl)c(C(F)(F)F)c1)C(CCCl)C(=O)NC1CCCCC1 (centres unmarked) [SC5053]	> 64 µg/mL	2 µg/mL	–
>64 µg/mL	> 64 µg/mL	CN(C(=O)C(CCCl)C(=O)N(C)c1ccc(Cl)c(C(F)(F)F)c1)c1ccc(Cl)c(C(F)(F)F)c1 [SC5101]	> 64 µg/mL	>64 µg/mL	–
>64 µg/mL	> 64 µg/mL	CN(C(=O)C(CCCl)C(=O)N(C)c1cc(Cl)cc(Cl)c1)c1cc(Cl)cc(Cl)c1 [SC5102]	> 64 µg/mL	>64 µg/mL	–
0.0039 µg/mL	0.25 µg/mL	O=C(Nc1ccc(Cl)c(C(F)(F)F)c1)C(CCCCl)C(=O)Nc1ccc(Cl)c(C(F)(F)F)c1 [SC5103]	2 µg/mL	0.0078 µg/mL	–
0.0078 µg/mL	0.5 µg/mL	O=C(Nc1cc(Cl)cc(Cl)c1)C(F)(CCCl)C(=O)Nc1cc(Cl)cc(Cl)c1 [SC5104]	4 µg/mL	0.0078 µg/mL	–
0.125 µg/mL	> 64 µg/mL	O=C(Nc1ccc(Cl)c(C(F)(F)F)c1)C(F)(CCCl)C(=O)Nc1ccc(Cl)c(C(F)(F)F)c1 [SC5105]	> 64 µg/mL	0.125 µg/mL	–
0.25 µg/mL	> 64 µg/mL	O=C(CC(=O)Nc1ccc(Cl)c(C(F)(F)F)c1)Nc1ccc(Cl)c(C(F)(F)F)c1 [SC5106]	> 64 µg/mL	0.5 µg/mL	–
0.0625 µg/mL	–	O=C(Nc1ccc(Cl)c(C(F)(F)F)c1)C1(C(=O)Nc2ccc(Cl)c(C(F)(F)F)c2)CC1 [SC5107]	–	0.125 µg/mL	MBC (amide compound alone): >64 µg/mL; MIC (amide compound alone): >64 µg/mL
0.00012 µg/mL	0.25 µg/mL	O=C(Nc1ccc(Cl)c(C(F)(F)F)c1)Nc1ccc(Cl)c(C(F)(F)F)c1 [SC5178]	2 µg/mL	0.00156 µg/mL	–
